This is an account of results in patent publication US20050203119A1, “Dihydropyridine compounds for treating or preventing metabolic disorders” (priority 2003, published 2005).

Test [1] relates to NIDDM male mice (C57BLKS/J-m+/+Lepr db). The experiment in a line: 7 day baseline glucose test in db/db mice (Example 119). Format: in vivo, mouse. The conditions noted are these: for Serum Glucose % Pre-Treatment Baseline: 3 hours after dose. The method, then: Non-insulin dependent diabetic mellitus (NIDDM) male mice (C57BLKS/J-m+/+Lepr db), weighing 50±5 g and 9-10-week old, were used. The animals were housed in Individually Ventilated Cages Racks (IVC Racks) throughout the experiment and all animals were allowed free access to sterilized Lab chow and sterilized distilled water. Compounds 39, 41 and 64 at 50 mg/kg as well as vehicle (0.5% Methylcellulose) were administered orally once daily for 7 consecutive days to test animals after the first blood sampling (pre-treatment). The post-treatment blood samples were withdrawn from the orbital sinus at 3 hours after administration of daily dose on day 3 and on day 7. Serum glucose levels in the pre- and post-treatment were determined by enzymatic (Mutaratase-GOD) methods. Post-treatment serum glucose values were expressed in percentage of respective pre-treatment values. Percentage reductions were expressed in percentage of pre-treatment values of test substance relative to percentage of pre-treatment values of vehicle. All percentages were calculated and unpaired; Student's t test was then applied to establish significant difference between the test compound-treated and vehicle control groups. Differences are considered significant at P<0.05.

For test [2], the system named is male KK-Ay mice (KK-Ay/Ta Jcl). The test is described as follows: Seven day baseline glucose (7DBG) study in fed KK-Ay mice (Example 123, FIG. 7). Format: in vivo, mouse. The conditions noted are these: oral once daily 7 days. The method, then:
To determine the effect of a test compound on blood glucose levels in fed diabetic mice, seven day baseline glucose (7DBG) studies were conducted. Six to eight week old, male db/db mice (C57BLKS/J-m+/+Lepr^db/Iar), homozygous for a mutation in the gene encoding the leptin receptor, were purchased from the Institute for Animal Reproduction (Kasumigaura, Japan). Six to eight week old male KK-A^y mice (KK-A^y/Ta Jcl), a polygenic diabetes model, were purchased from Cler Japan (Tokyo, Japan). Animals were housed four to a cage in micro-isolators on a 12 hr/12 hr light/dark cycle, acclimated for at least one week prior to use and fed normal laboratory chow ad libitum. Studies were conducted with animals between nine and fourteen weeks of age. […]
To perform a 7DBG study, the starting glucose levels of db/db or KK-Ay mice in the fed state were determined on day 0, 24 hrs prior to the first drug dose on day 1. Animals were retro-orbitally bled and serum glucose levels measured by the mutarotase-glucose oxidase enzymatic method using a Glucose CII-Test Wako kit (Wako Pure Chemicals Industries, Ltd., Osaka, Japan). […] Serum glucose levels were determined 3 hrs after dosing the first compound on days 3 and 7.
The serum glucose levels on days 3 or 7 as a percent of the serum glucose levels on day 0 for individual animals in each group (8 mice/group), were calculated using Formula 3. […]

The test system of test [3] is Male ZDF rats (ZDF/GmiCrl-fa/fa). The experiment in a line: Seven day baseline glucose study in fed ZDF rats (Example 124, FIG. 9). Format: in vivo, rat. The conditions noted are these: oral once daily 7 days. The method, then: To determine the effect of a test compound on blood glucose levels in fed and fasted diabetic rats, a 7DBG study was conducted, followed immediately by an 8th day of dosing and an OGTT study on the same animals. Male ZDF rats (ZDF/GmiCrl-fa/fa), homozygous for a mutation in the gene encoding the leptin receptor, were purchased from Charles River Laboratories (Wilmington, Mass., USA). Animals were individually housed in clear polycarbonate cages (contact bedding) on a 12 hr/12 hr light/dark cycle, acclimated for at least one week prior to use and fed normal laboratory chow (Purina No. 5008) ad libitum. Studies were conducted with animals starting between eleven and twelve weeks of age. Animals were used for a single study before being replaced.
To perform a 7DBG plus OGTT study, animals were bled by tail vein lancing on day 0, 24 hrs prior to the first drug dose on day 1, and blood glucose levels were measured by a hand-held glucometer. Animals were randomized into dosing groups of 6 animals, with each group having a similar starting average glucose level. […] Blood glucose levels were determined daily using a hand-held glucometer 3 hrs after the first dose on days 1 through 7.
The serum glucose levels on days 3 or 7 as a percent of the serum glucose levels on day 0 for individual animals in each group (6 rats/group), were calculated using Formula 3. […]

The test system is the same in test [4]. The experiment in a line: Oral glucose tolerance test in fasted ZDF rats after 8 days of dosing (Example 124, FIG. 10). The conditions noted are these: OGTT. Format: in vivo, rat. On the procedure:
Male ZDF rats (ZDF/GmiCrl-fa/fa), homozygous for a mutation in the gene encoding the leptin receptor, were purchased from Charles River Laboratories (Wilmington, Mass., USA). Animals were individually housed in clear polycarbonate cages (contact bedding) on a 12 hr/12 hr light/dark cycle, acclimated for at least one week prior to use and fed normal laboratory chow (Purina No. 5008) ad libitum. Studies were conducted with animals starting between eleven and twelve weeks of age. Animals were used for a single study before being replaced. […] As noted above, animals were dosed on day 8 on the same schedule as was used for days 1 through 7 of the 7DBG study. […] Serum glucose levels were determined using a laboratory analyzer. […] This may be due to the dose of metformin (250 mg/kg) that was used, which may be too high to observe any synergy between the two compounds. […] The indicated time points are relative to the oral glucose dose.

[5] abbreviates: Day 3, 50 mg/kg orally once daily.
Where [6] appears, read: Day 7, 50 mg/kg orally once daily.

As to `CCOC(=O)C1=C(COCCN)NC2=C(C(=O)CC(C)(C)C2)C1c1cccnc1` (stereo not shown) [Compound 39, 2-(2-Amino-ethoxymethyl)-7,7-dimethyl-5-oxo-4-pyridin-3-yl-1,4,5,6,7,8-hexahydro-quinoline-3-carboxylic acid ethyl ester], in test [1] (setting [5]), the “serum glucose % Reduction relative to vehicle” value was “(3) %” and the “Serum Glucose % Pre-Treatment Baseline” value turned out to be 98.5%. Moreover, in test [1] (setting [6]), the “serum glucose % Reduction relative to vehicle” value is listed as “(18) %” and the “Serum Glucose % Pre-Treatment Baseline” value was determined as 82.3%. In addition, in test [2], the “glucose lowering activities of rosiglitazone and metformin in combination with Compound 39 (FIG. 7)” value is on record as “enhanced”. Moreover, the “serum glucose (FIG. 7)” value in test [2] (Compound 39 alone) is listed as “decreased serum glucose”. In test [3], the “glucose lowering activities of metformin in combination with Compound 39 (FIG. 9)” value is recorded as “enhanced”. The “serum glucose (FIG. 9)” value in test [3] (Compound 39 alone) was “decreased serum glucose”. For the same compound, the “glucose intolerance relative to vehicle-treated animals (FIG. 10)” value in test [4] (after daily oral dosing for 8 days) was “decreased”. Further, the “effect of metformin on glucose tolerance in combination with Compound 39 (FIG. 10)” value in test [4] (metformin 250 mg/kg) is given as “did not appear to enhance”.
